Article PMC3914206

How the values were obtained:
Type in all cases: binding
Set-up in all cases: KINOMEscan: ABL1(F317L)-phosphorylated / KINOMEscan: ABL1(H396P)-nonphosphorylated / KINOMEscan: ABL1(H396P)-phosphorylated / KINOMEscan: ABL1(M351T)-phosphorylated / KINOMEscan: ABL1(T315I)-phosphorylated / KINOMEscan: ABL1-nonphosphorylated / KINOMEscan: ABL1-phosphorylated / KINOMEscan: ACVR2A / KINOMEscan: ACVR2B / KINOMEscan: ADCK3 / KINOMEscan: ADCK4 / KINOMEscan: AKT1 / KINOMEscan: AKT3 / KINOMEscan: ALK / KINOMEscan: ARK5 / KINOMEscan: AURKA / KINOMEscan: AURKC / KINOMEscan: BIKE / KINOMEscan: BMPR1A / KINOMEscan: BMPR1B / KINOMEscan: BMX / KINOMEscan: BRK / KINOMEscan: BRSK1 / KINOMEscan: BRSK2 / KINOMEscan: CAMK1 / KINOMEscan: CAMK1D / KINOMEscan: CAMK1G / KINOMEscan: CAMK2A / KINOMEscan: CAMK2B / KINOMEscan: AAK1 / KINOMEscan: CAMK2D / KINOMEscan: CAMK2G / KINOMEscan: ABL1(F317I)-nonphosphorylated / KINOMEscan: ABL1(F317I)-phosphorylated / KINOMEscan: ABL1(F317L)-nonphosphorylated: unit: % Ctrl
[1] = target: T1, panel of 442 kinases (Homo sapiens, UniProt Q08345); conditions: Compound Concentration 10 µM
T1 construct: purchased KINOMEscan
T1 sequence (Q08345 19-913): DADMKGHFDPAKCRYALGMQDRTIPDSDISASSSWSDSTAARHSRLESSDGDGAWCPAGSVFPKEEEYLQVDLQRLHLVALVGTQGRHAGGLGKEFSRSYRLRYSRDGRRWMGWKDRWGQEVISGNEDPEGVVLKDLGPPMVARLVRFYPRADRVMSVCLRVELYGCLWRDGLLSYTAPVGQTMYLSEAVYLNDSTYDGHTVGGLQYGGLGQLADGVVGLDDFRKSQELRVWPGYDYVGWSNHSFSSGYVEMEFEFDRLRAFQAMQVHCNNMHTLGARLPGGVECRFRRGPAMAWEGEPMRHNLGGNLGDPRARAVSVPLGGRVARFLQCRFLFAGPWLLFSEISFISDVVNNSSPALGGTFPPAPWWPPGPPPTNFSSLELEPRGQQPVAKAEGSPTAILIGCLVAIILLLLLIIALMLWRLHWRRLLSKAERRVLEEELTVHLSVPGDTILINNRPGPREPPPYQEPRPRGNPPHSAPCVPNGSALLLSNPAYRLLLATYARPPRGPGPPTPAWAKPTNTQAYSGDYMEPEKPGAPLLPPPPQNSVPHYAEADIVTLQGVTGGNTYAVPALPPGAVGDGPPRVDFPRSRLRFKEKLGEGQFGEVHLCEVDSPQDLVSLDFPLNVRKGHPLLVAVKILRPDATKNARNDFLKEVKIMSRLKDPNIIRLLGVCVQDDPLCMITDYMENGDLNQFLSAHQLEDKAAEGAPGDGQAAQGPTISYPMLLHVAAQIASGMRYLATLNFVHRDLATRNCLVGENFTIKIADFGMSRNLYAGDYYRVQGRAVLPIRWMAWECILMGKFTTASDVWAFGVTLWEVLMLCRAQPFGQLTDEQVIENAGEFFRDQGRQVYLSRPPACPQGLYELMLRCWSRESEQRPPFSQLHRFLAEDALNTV
Source text: (§1) We assessed the selectivity of members of this scaffold using the KINOMEscan methodology across a near comprehensive panel of 442 kinases [[18,27]].

[2] = target: T2, panel of 442 kinases (Homo sapiens, UniProt P00519, T315I); conditions: Compound Concentration 10 µM
T2 construct: purchased KINOMEscan
Source text: as §1

[3] = target: T3, panel of 442 kinases (Homo sapiens, UniProt Q86Y07); conditions: kinase VRK2; compound concentration 10 µM
T3 construct: purchased KINOMEscan
T3 sequence (Q86Y07 whole entry): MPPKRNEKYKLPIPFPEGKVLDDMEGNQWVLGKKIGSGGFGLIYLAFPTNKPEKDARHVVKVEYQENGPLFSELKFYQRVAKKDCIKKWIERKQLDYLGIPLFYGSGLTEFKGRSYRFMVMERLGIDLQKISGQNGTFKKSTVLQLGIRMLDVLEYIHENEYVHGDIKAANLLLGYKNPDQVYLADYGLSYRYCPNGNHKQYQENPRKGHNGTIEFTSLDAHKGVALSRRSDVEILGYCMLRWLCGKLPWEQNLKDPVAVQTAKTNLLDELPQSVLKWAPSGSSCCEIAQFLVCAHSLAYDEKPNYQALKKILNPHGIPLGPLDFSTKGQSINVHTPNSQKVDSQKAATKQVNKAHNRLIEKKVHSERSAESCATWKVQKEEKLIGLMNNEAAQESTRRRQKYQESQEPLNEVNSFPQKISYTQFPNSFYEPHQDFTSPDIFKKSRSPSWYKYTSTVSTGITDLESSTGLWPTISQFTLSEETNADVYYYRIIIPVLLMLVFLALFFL
Source text: as §1

[4] = target: T4, panel of 442 kinases (Homo sapiens, UniProt P17612); conditions: Compound Concentration 10 µM
T4 construct: purchased KINOMEscan
Source text: as §1

| SMILES | KINOMEscan: DDR1 [1] | KINOMEscan: ABL1(T315I)-nonphosphorylated [2] | KINOMEscan: ABL1(T315I)-phosphorylated [2] | % Ctrl, VRK2 [3] | KINOMEscan: PKAC-alpha [4] |
| --- | --- | --- | --- | --- | --- |
| CCOc1cc(C(=O)N2CCC(N3CCN(C)CC3)CC2)ccc1Nc1ncc2c(n1)N(C1CCCC1)c1ccccc1C(=O)N2C [Compound 26] | 100 | 95 | 92 | 82 % Ctrl | 100 |
| COc1cc(C(=O)N2CCC(N3CCN(C)CC3)CC2)ccc1Nc1ncc2c(n1)N(C1CCCC1)c1ccccc1C(=O)N2C [Compound 25, 11-cyclopentyl-2-((2-methoxy-4-(4-(4-methylpiperazin-1-yl)piperidine-1-carbonyl)phenyl)amino)-5-methyl-5H-benzo[e]pyrimido[5,4-b][1,4]diazepin-6(11H)-one] | 98 | 100 | 100 | 100 % Ctrl | 100 |
| COc1cc(C(=O)N2CCC(N3CCN(C)CC3)CC2)ccc1Nc1ncc2c(n1)N1CCc3cccc(c31)C(=O)N2C [Compound 24] | 67 | – | 100 | 100 % Ctrl | – |
| COc1cc(C(=O)N2CCC(N3CCN(C)CC3)CC2)ccc1Nc1ncc2c(n1)N(C)c1ccccc1C(=O)N2C [15 (LRRK2-IN-1)] | 100 | 100 | 58 | 99 % Ctrl | 100 |
